System: baby corn seeds
Assay: root length developed on baby corn seeds after treatment with homeopathic growth stimulant
Type: in vivo
Experimental: The length of roots that developed on the baby corn seeds, after treatment of the seeds with various concentrations of homeopathic growth stimulant, was measured. […] This critical transition indicates a fundamental difference in the chemical structure of the resulting plant enhancement substance by molecular cloistering. The criticality and creation of a chemically different substance brought about by dilution is indicated by the synergy of combining the resulting dilution medium and dissolved homeopathic growth stimulant with a nutrient source such as a fertilizer. This synergy is evidenced by the multiplication of growth increase in target plants resulting from the combination. […] However, treatment of a target plant using a combination of dilution medium and dissolved homeopathic growth stimulant along with a nutrient source increases plant growth tenfold.

With `O.O.O.O.O.O=S(=O)([O-])[O-].[Cu+2]` [CuSO4, copper sulfate pentahydrate (CuSO4.5H2O)] the root development (high concentration) was “arrests root development”, the “root growth (length of roots)” value (higher concentrations of CuSO4 in the homeopathic growth stimulant) was “arrest root growth” and the root growth (homeopathic concentration (3-12X potency)) was “acts as a root growth enhancer”. The “root growth (length of roots)” value (lower concentrations of CuSO4, below the homeopathic barrier or threshold concentration) was “enhance root growth”.
